{
  "source": "patent EP0432309B1",
  "about": "“Sugar derivatives, process for their preparation and their use” (Laevosan-Gesellschaft m.b.H., priority 1989, dated 1991)",
  "key": {"[1]": {"tested_on": "humanen Ovarialkarzinom-Zellkultur (HOC-7)", "experiment": "human tumour cloning assay (HTCA): clonal growth of single malignant cells in semisolid media, colonies counted after 21 days", "assay_type": "cell-based", "details": "for Kolonienüberleben: HOC-7, 21 days; for antiproliferative/cytotoxische Wirkung: HOC-7, HTCA, result in words", "description": "Zur Prüfung auf ihre antiproliferativen/cytotoxischen Eigenschaften wurden die erfindungsgemäßen Verbindungen der Formel I und II mittels einer humanen Ovarialkarzinom-Zellkultur (HOC-7) getestet, wobei als Testsystem der sogenannte human tumour cloning assay (HTCA) herangezogen wurde, ein System, in dem das klonale Wachstum maligner Einzelzellen in semisoliden Medien selektiv erfaßt wird (vgl. S. Hamburger, Science 197, (1977), 461). Dabei zeigten die Verbindungen eine überraschend hohe antiproliferative/cytotoxische Wirkung.\nDas in Beispiel 1 hergestellte 3-DGP sowie DGP-DA von Beispiel 2 wurden hinsichtlich ihrer antiproliferativen/cytotoxischen Eigenschaften mittels einer humanen Ovarialkarzinom-Zellkultur (HOC-7) getestet, wobei als Testsystem der sogenannte human tumour cloning assay (HTCA) herangezogen wurde, ein System, in dem das klonale Wachstum maligner Einzelzellen in semisoliden Medien selektiv erfaßt wird (vgl. S. Hamburger, Science 197, (1977), 461).\nJe eine wäßrige Lösung von 3-DGP und DGP-DA wurde in folgender Verdünnungsreihe getestet.\nwobei sowohl ein […] (in Form von HgCl₂) als auch ein Ansatz mit Lösungsmittel (Aqua bidest) mitgeführt wurde.\nDie Kulturen wurden bei 37°C, 5 % CO₂, 100 % Luftfeuchtigkeit 21 Tage inkubiert, danach wurden die Kultursysteme aufgearbeitet, wobei die gewachsenen Kolonien (Klone) unter dem Mikroskop ausgezählt wurden.\nAls Wirksamkeit der getesteten Lösung wurde ein Kolonienüberleben < 50 % der Kontrolle definiert."}, "[2]": {"tested_on": "Escherichia coli ATCC 8739", "experiment": "preservation test according to DAB 9, VIII, N1 (colony counts over time)", "assay_type": "cell-based", "details": "E. coli; for KBE nach 10 Tagen: 10 days; for KBE nach 3 Tagen: 3 days; for KBE nach 1 Tag: 1 day", "description": "(§1) Die erfindungsgemäßen Verbindungen weisen eine bakterizide Wirksamkeit auf, wie die nachstehend angegebenen Versuchsergebnisse zeigen: Präparat: Di-deoxy-glyceropentulose-Dianhydrid 0,3 %, 1 % und 3 % Die Untersuchung wurde mit folgenden Keimen durchgeführt: Escherichia coli ATCC 8739 Pseudomonas aeruginosa ATCC 9027 Staphylococcus aureus ATCC 6538 Candida albicans ATCC 10231 Aspergillus niger ATCC 16404 Tabelle 6\n(§2) Analog Beispiel 9 wurde die bakterizide Wirksamkeit von DGP untersucht. Präparat: DGP-wässriger Sirup 0,3 %, 1 % und 3 %, Charge: 91621 Die Untersuchung wurde mit folgenden Keimen durchgeführt: Escherichia coli ATCC 8739 Pseudomonas aeruginosa ATCC 9027 Staphyloccus aureus ATCC 6538 Candida albicans ATCC 10231 Aspergillus niger ATCC 16404 Tabelle 7"}, "[3]": {"tested_on": "Pseudomonas aeruginosa ATCC 9027", "experiment": "preservation test according to DAB 9, VIII, N1 (colony counts over time)", "assay_type": "cell-based", "details": "Pseud. aerug.; for KBE nach 10 Tagen: 10 days; for KBE nach 3 Tagen: 3 days; for KBE nach 1 Tag: 1 day", "description": "as §1, §2"}, "[4]": {"tested_on": "Staphylococcus aureus ATCC 6538", "experiment": "preservation test according to DAB 9, VIII, N1 (colony counts over time)", "assay_type": "cell-based", "details": "Staph. aureus; for KBE nach 10 Tagen: 10 days; for KBE nach 3 Tagen: 3 days; for KBE nach 1 Tag: 1 day", "description": "as §1, §2"}, "[5]": {"experiment": "stability / hydrolysis in aqueous solution", "assay_type": "physicochemical", "details": "result in words", "protocol": "Aus den geeigneten Fraktionen kann hochgereinigte 3-DGP als farbloser, nicht kristallisierender Sirup erhalten werden. Da die Substanz unter wasserfreien oder wasserarmen Bedingungen zur Bildung von dimeren Anhydriden neigt, ist es zweckmäßig, sie als etwa 50 %ige wäßrige Lösung herzustellen und aufzubewahren. […] Erhöhung der Temperatur und Absenken des pH-Wertes beschleunigen diese Zersetzung. Für die Aufbewahrung ist es daher zweckmäßig, Temperaturen von ≦ 4°C und pH-Werte zwischen 5 und 6 einzuhalten. In solchen Lösungen liegt offenbar ein Gemisch der alpha- und beta-Furanosen und des offenkettigen Ketozuckers vor.\nDie Glycoside bilden sich außerordentlich leicht aus den Lösungen von 3-DGP in den entsprechenden Alkoholen in Gegenwart sehr geringer Mengen an Säure oder Ionenaustauscher in der H⁺-Form als Katalysator bereits nach kurzer Behandlung bei Raumtemperatur. Ebenso leicht tritt in wäßriger Lösung Hydrolyse der Glycoside ein, so daß unter physiologischen Bedingungen eine Äquivalenz mit freier 3-DGP erwartet werden kann.\nDas Dianhydrid der Formel II (R = H) bildet sich leicht bei Behandlung von mäßig sauren 3-DGP-Lösungen mit wasserentziehenden Mitteln, wie z.B. wasserfreiem Natriumsulfat oder Calciumsulfat, oder beim Eindampfen von wäßrigen oder organischen Lösungen von 3-DGP und Stehenlassen des wasserfreien Produktes."}, "[6]": {"details": "result in words"}},
  "data": [
    {"smiles": "O=C(CO)C[C@H](O)CO", "note": "[DGP, 3-Deoxy-D-Glyceropentulose]", "values": [
      {"measurement": "Kolonienüberleben", "setting": "[1]; Testkonzentration C-F (5.000-250 µg/ml im Petrischälchen), % of control", "value": 0, "unit": "% = Wirksamkeit"},
      {"measurement": "Kolonienüberleben", "setting": "[1]; Testkonzentration F1 (200 µg/ml)", "value": "0,08 % = Wirksamkeit"},
      {"measurement": "Kolonienüberleben", "setting": "[1]; Testkonzentration F2 (152 µg/ml)", "value": 10, "unit": "% = Wirksamkeit"},
      {"measurement": "Kolonienüberleben", "setting": "[1]; Testkonzentration F3 (100 µg/ml)", "value": "44 % = intermediäre Wirksamkeit"},
      {"measurement": "Kolonienüberleben", "setting": "[1]; Testkonzentration G-J (50-2,5 µg/ml)", "value": "65 - 84 % = keine Wirksamkeit"},
      {"measurement": "KBE nach 10 Tagen", "setting": "[2]; Konz 3 %", "value": 0, "unit": "KBE"},
      {"measurement": "KBE nach 10 Tagen", "setting": "[3]; Konz 0,3 %", "value": 0, "unit": "KBE"},
      {"measurement": "KBE nach 3 Tagen", "setting": "[3]; Konz 1 %", "value": 0, "unit": "KBE"},
      {"measurement": "KBE nach 10 Tagen", "setting": "[3]; Konz 1 %", "value": 0, "unit": "KBE"},
      {"measurement": "KBE nach 1 Tag", "setting": "[3]; Konz 3 %", "value": 15, "unit": "KBE"},
      {"measurement": "KBE nach 3 Tagen", "setting": "[3]; Konz 3 %", "value": 0, "unit": "KBE"},
      {"measurement": "KBE nach 10 Tagen", "setting": "[3]; Konz 3 %", "value": 0, "unit": "KBE"},
      {"measurement": "KBE nach 10 Tagen", "setting": "[4]; Konz 0,3 %", "value": 0, "unit": "KBE"},
      {"measurement": "KBE nach 10 Tagen", "setting": "[4]; Konz 1 %", "value": 0, "unit": "KBE"},
      {"measurement": "KBE nach 3 Tagen", "setting": "[4]; Konz 3 %", "value": 0, "unit": "KBE"},
      {"measurement": "KBE nach 10 Tagen", "setting": "[4]; Konz 3 %", "value": 0, "unit": "KBE"},
      {"measurement": "Stabilität der wäßrigen Lösung", "setting": "[5]", "value": "relativ instabil"}
    ]},
    {"smiles": "OC1COC2(COC3(CO2)CC(O)CO3)C1", "note": "[DGP-DA, Di-(3-deoxy-D-glyceropentulose)-dianhydrid]", "values": [
      {"measurement": "Kolonienüberleben", "setting": "[1]; Testkonzentration C (5.000 µg/ml)", "value": 30, "unit": "% = Wirksamkeit"},
      {"measurement": "Kolonienüberleben", "setting": "[1]; Testkonzentration D (2.500 µg/ml)", "value": "50 % = intermediäre Wirksamkeit"},
      {"measurement": "Kolonienüberleben", "setting": "[1]; Testkonzentration E (500 µg/ml)", "value": "57 % = intermediäre Wirksamkeit"},
      {"measurement": "Kolonienüberleben", "setting": "[1]; Testkonzentration F-J (250-2,5 µg/ml)", "value": "61 - 89 % = keine Wirksamkeit"},
      {"measurement": "KBE nach 3 Tagen", "setting": "[2]; Konz 0,3 %", "value": 0, "unit": "KBE"},
      {"measurement": "KBE nach 10 Tagen", "setting": "[2]; Konz 0,3 %", "value": 0, "unit": "KBE"},
      {"measurement": "KBE nach 1 Tag", "setting": "[2]; Konz 1 %", "value": 0, "unit": "KBE"},
      {"measurement": "KBE nach 3 Tagen", "setting": "[2]; Konz 1 %", "value": 0, "unit": "KBE"},
      {"measurement": "KBE nach 10 Tagen", "setting": "[2]; Konz 1 %", "value": 0, "unit": "KBE"},
      {"measurement": "KBE nach 1 Tag", "setting": "[2]; Konz 3 %", "value": 0, "unit": "KBE"},
      {"measurement": "KBE nach 3 Tagen", "setting": "[2]; Konz 3 %", "value": 0, "unit": "KBE"},
      {"measurement": "KBE nach 10 Tagen", "setting": "[2]; Konz 3 %", "value": 0, "unit": "KBE"},
      {"measurement": "KBE nach 1 Tag", "setting": "[3]; Konz 3 %", "value": 0, "unit": "KBE"},
      {"measurement": "KBE nach 3 Tagen", "setting": "[3]; Konz 3 %", "value": 0, "unit": "KBE"},
      {"measurement": "KBE nach 10 Tagen", "setting": "[3]; Konz 3 %", "value": 0, "unit": "KBE"},
      {"measurement": "KBE nach 1 Tag", "setting": "[4]; Konz 0,3 %", "value": 0, "unit": "KBE"},
      {"measurement": "KBE nach 3 Tagen", "setting": "[4]; Konz 0,3 %", "value": 0, "unit": "KBE"},
      {"measurement": "KBE nach 10 Tagen", "setting": "[4]; Konz 0,3 %", "value": 0, "unit": "KBE"},
      {"measurement": "KBE nach 1 Tag", "setting": "[4]; Konz 1 %", "value": 0, "unit": "KBE"},
      {"measurement": "KBE nach 3 Tagen", "setting": "[4]; Konz 1 %", "value": 0, "unit": "KBE"},
      {"measurement": "KBE nach 10 Tagen", "setting": "[4]; Konz 1 %", "value": 0, "unit": "KBE"},
      {"measurement": "KBE nach 1 Tag", "setting": "[4]; Konz 3 %", "value": 0, "unit": "KBE"},
      {"measurement": "KBE nach 3 Tagen", "setting": "[4]; Konz 3 %", "value": 0, "unit": "KBE"},
      {"measurement": "KBE nach 10 Tagen", "setting": "[4]; Konz 3 %", "value": 0, "unit": "KBE"},
      {"measurement": "Stabilität der wäßrigen Lösung", "setting": "[5]", "value": "leicht zum Monomeren spaltbar"}
    ]},
    {"smiles": "CCCCOC1(COC(C)=O)C[C@H](OC(C)=O)CO1", "note": "(stereo partly drawn) [Diacyl-n-butyl-glycosid, n-Butyl-1,4-Diacetyl-3-Deoxy-D-Glyceropentulosid]", "values": [
      {"measurement": "antiproliferative/cytotoxische Wirkung", "setting": "[1]", "value": "eindeutige antiproliferative/cytotoxische Wirkung"}
    ]},
    {"smiles": "COC1(CO)C[C@H](O)CO1", "note": "(stereo partly drawn) [Methylglycosid, Methyl-3-Deoxy-D-Glyceropentulosid]", "values": [
      {"measurement": "antiproliferative/cytotoxische Wirkung", "setting": "[1]", "value": "eindeutige antiproliferative/cytotoxische Wirkung"}
    ]},
    {"smiles": "[Cl][Hg][Cl]", "note": "[Negativkontrolle, HgCl₂, reference compound]", "values": [
      {"measurement": "Kolonienüberleben", "setting": "[1]; Negativkontrolle VI (HgCl₂), concentration not given", "value": 0, "unit": "%"}
    ]},
    {"smiles": "CCCCOC1(CO)C[C@H](O)CO1", "note": "(stereo partly drawn) [n-Butylglycosid, n-Butyl-3-Deoxy-D-Glyceropentulosid]", "values": [
      {"measurement": "antiproliferative/cytotoxische Wirkung", "setting": "[1]", "value": "eindeutige antiproliferative/cytotoxische Wirkung"},
      {"measurement": "Löslichkeit", "setting": "[6]", "value": "gut löslich in Wasser, Alkoholen und niederen Ketonen"}
    ]}
  ]
}
